Reference: ChEMBL document CHEMBL4507320, “Data for DCP probe NVS-MALT1” (2021)

Assays:
[1] = target: RAC-alpha serine/threonine-protein kinase (Homo sapiens) (UniProt P31749); conditions: Compound concentration 1000.0 nM
[2] = target: RAC-gamma serine/threonine-protein kinase (Homo sapiens) (UniProt Q9Y243); conditions: Compound concentration 1000.0 nM
[3] = target: Mitogen-activated protein kinase kinase kinase 6 (Homo sapiens) (UniProt O95382); conditions: Compound concentration 1000.0 nM
[4] = target: Bone morphogenetic protein receptor type-1B (Homo sapiens) (UniProt O00238); conditions: Compound concentration 1000.0 nM
[5] = system: Serine/threonine-protein kinase B-raf (Homo sapiens), P15056 [V600E]; conditions: Compound concentration 1000.0 nM
[6] = target: Calcium/calmodulin-dependent protein kinase kinase 1 (Homo sapiens) (UniProt Q8N5S9); conditions: Compound concentration 1000.0 nM
[7] = target: Cyclin-dependent kinase 4 (Homo sapiens) (UniProt P11802); conditions: Compound concentration 1000.0 nM
[8] = target: Cyclin-dependent kinase-like 3 (Homo sapiens) (UniProt Q8IVW4); conditions: Compound concentration 1000.0 nM
[9] = target: Dual specificity protein kinase CLK4 (Homo sapiens) (UniProt Q9HAZ1); conditions: Compound concentration 1000.0 nM
[10] = target: Ephrin type-A receptor 1 (Homo sapiens) (UniProt P21709); conditions: Compound concentration 1000.0 nM
[11] = system: Receptor-type tyrosine-protein kinase FLT3 (Homo sapiens), P36888 [UNDEFINED MUTATION]; conditions: Compound concentration 1000.0 nM
[12] = target: Cyclin-G-associated kinase (Homo sapiens) (UniProt O14976); conditions: Compound concentration 1000.0 nM
[13] = target: G protein-coupled receptor kinase 4 (Homo sapiens) (UniProt P32298); conditions: Compound concentration 1000.0 nM
[14] = target: Rhodopsin kinase GRK7 (Homo sapiens) (UniProt Q8WTQ7); conditions: Compound concentration 1000.0 nM
[15] = target: Homeodomain-interacting protein kinase 4 (Homo sapiens) (UniProt Q8NE63); conditions: Compound concentration 1000.0 nM
[16] = target: Interleukin-1 receptor-associated kinase 1 (Homo sapiens) (UniProt P51617); conditions: Compound concentration 1000.0 nM
[17] = system: Mast/stem cell growth factor receptor Kit (Homo sapiens), P10721 [D816H]; conditions: Compound concentration 1000.0 nM
[18] = system: Mast/stem cell growth factor receptor Kit (Homo sapiens), P10721 [L576P]; conditions: Compound concentration 1000.0 nM
[19] = target: Tyrosine-protein kinase Lck (Homo sapiens) (UniProt P06239); conditions: Compound concentration 1000.0 nM
[20] = target: Mitogen-activated protein kinase kinase kinase 4 (Homo sapiens) (UniProt Q9Y6R4); conditions: Compound concentration 1000.0 nM
[21] = target: Mitogen-activated protein kinase kinase kinase kinase 4 (Homo sapiens) (UniProt O95819); conditions: Compound concentration 1000.0 nM
[22] = target: Hepatocyte growth factor receptor (Homo sapiens) (UniProt P08581); conditions: Compound concentration 1000.0 nM
[23] = target: Misshapen-like kinase 1 (Homo sapiens) (UniProt Q8N4C8); conditions: Compound concentration 1000.0 nM
[24] = target: Serine/threonine-protein kinase Nek4 (Homo sapiens) (UniProt P51957); conditions: Compound concentration 1000.0 nM
[25] = target: Serine/threonine-protein kinase NIM1 (Homo sapiens) (UniProt Q8IY84); conditions: Compound concentration 1000.0 nM
[26] = target: Mitogen-activated protein kinase 11 (Homo sapiens) (UniProt Q15759); conditions: Compound concentration 1000.0 nM
[27] = target: Platelet-derived growth factor receptor alpha (Homo sapiens) (UniProt P16234); conditions: Compound concentration 1000.0 nM
[28] = target: Cyclin-dependent kinase 2 homolog (Plasmodium falciparum (isolate 3D7)) (UniProt P61075); conditions: Compound concentration 1000.0 nM
[29] = system: Phosphatidylinositol 4,5-bisphosphate 3-kinase catalytic subunit alpha isoform (Homo sapiens), P42336 [H1047Y]; conditions: Compound concentration 1000.0 nM
[30] = target: 1-phosphatidylinositol 3-phosphate 5-kinase (Homo sapiens) (UniProt Q9Y2I7); conditions: Compound concentration 1000.0 nM
[31] = target: Membrane-associated tyrosine- and threonine-specific cdc2-inhibitory kinase (Homo sapiens) (UniProt Q99640); conditions: Compound concentration 1000.0 nM
[32] = target: Serine/threonine-protein kinase PLK2 (Homo sapiens) (UniProt Q9NYY3); conditions: Compound concentration 1000.0 nM
[33] = target: Protein kinase C theta type (Homo sapiens) (UniProt Q04759); conditions: Compound concentration 1000.0 nM
[34] = target: cGMP-dependent protein kinase 2 (Homo sapiens) (UniProt Q13237); conditions: Compound concentration 1000.0 nM
[35] = target: Serine/threonine-protein kinase RIO2 (Homo sapiens) (UniProt Q9BVS4); conditions: Compound concentration 1000.0 nM
[36] = target: Ribosomal protein S6 kinase alpha-4 (Homo sapiens) (UniProt O75676); conditions: Compound concentration 1000.0 nM
[37] = target: Ribosomal protein S6 kinase alpha-1 (Homo sapiens) (UniProt Q15418); conditions: Compound concentration 1000.0 nM
[38] = target: Proto-oncogene tyrosine-protein kinase Src (Homo sapiens) (UniProt P12931); conditions: Compound concentration 1000.0 nM
[39] = target: SRSF protein kinase 1 (Homo sapiens) (UniProt Q96SB4); conditions: Compound concentration 1000.0 nM
[40] = target: TGF-beta receptor type-1 (Homo sapiens) (UniProt P36897); conditions: Compound concentration 1000.0 nM
[41] = target: Serine/threonine-protein kinase ULK1 (Homo sapiens) (UniProt O75385); conditions: Compound concentration 1000.0 nM
[42] = target: Serine/threonine-protein kinase WNK4 (Homo sapiens) (UniProt Q96J92); conditions: Compound concentration 1000.0 nM
[43] = target: Mitogen-activated protein kinase kinase kinase 19 (Homo sapiens) (UniProt Q56UN5); conditions: Compound concentration 1000.0 nM
[44] = target: 5-hydroxytryptamine receptor 1B (Homo sapiens) (UniProt P28222); conditions: Compound concentration 10.0 uM
[45] = target: Kappa-type opioid receptor (Homo sapiens) (UniProt P41145); conditions: Compound concentration 10.0 uM

Chain of Mast/stem cell growth factor receptor Kit (Homo sapiens), P10721 [L576P] (P10721 whole entry L576P): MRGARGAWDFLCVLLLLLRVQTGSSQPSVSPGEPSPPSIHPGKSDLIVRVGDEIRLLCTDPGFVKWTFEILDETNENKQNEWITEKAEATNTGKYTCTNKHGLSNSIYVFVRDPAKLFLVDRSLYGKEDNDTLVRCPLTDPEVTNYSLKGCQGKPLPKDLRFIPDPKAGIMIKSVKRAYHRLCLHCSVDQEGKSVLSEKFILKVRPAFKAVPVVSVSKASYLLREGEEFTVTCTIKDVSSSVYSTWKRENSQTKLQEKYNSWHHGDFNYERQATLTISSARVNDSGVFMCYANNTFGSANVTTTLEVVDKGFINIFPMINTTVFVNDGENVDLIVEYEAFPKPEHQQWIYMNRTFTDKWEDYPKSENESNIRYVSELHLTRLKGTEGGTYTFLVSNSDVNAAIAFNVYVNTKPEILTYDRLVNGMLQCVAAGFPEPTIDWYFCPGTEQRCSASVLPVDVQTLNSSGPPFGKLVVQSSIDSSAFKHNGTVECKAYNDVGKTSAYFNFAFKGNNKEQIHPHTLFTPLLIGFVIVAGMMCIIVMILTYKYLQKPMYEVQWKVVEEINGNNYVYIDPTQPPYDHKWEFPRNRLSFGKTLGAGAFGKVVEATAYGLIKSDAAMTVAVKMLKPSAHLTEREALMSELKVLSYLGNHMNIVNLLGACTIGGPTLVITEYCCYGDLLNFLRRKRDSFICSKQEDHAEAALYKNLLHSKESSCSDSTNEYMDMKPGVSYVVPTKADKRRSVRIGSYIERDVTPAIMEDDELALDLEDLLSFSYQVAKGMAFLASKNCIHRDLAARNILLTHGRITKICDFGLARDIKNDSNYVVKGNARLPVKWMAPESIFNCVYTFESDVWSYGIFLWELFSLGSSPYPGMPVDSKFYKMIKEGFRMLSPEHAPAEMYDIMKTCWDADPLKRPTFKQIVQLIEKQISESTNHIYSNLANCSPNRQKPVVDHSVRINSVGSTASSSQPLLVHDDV
Chain of Mast/stem cell growth factor receptor Kit (Homo sapiens), P10721 [D816H] (P10721 whole entry D816H): as the sequence (P10721 whole entry L576P) above, with P576L, D816H counted along it
Chain of Protein kinase C theta type (Homo sapiens) (Q04759 whole entry, looked up): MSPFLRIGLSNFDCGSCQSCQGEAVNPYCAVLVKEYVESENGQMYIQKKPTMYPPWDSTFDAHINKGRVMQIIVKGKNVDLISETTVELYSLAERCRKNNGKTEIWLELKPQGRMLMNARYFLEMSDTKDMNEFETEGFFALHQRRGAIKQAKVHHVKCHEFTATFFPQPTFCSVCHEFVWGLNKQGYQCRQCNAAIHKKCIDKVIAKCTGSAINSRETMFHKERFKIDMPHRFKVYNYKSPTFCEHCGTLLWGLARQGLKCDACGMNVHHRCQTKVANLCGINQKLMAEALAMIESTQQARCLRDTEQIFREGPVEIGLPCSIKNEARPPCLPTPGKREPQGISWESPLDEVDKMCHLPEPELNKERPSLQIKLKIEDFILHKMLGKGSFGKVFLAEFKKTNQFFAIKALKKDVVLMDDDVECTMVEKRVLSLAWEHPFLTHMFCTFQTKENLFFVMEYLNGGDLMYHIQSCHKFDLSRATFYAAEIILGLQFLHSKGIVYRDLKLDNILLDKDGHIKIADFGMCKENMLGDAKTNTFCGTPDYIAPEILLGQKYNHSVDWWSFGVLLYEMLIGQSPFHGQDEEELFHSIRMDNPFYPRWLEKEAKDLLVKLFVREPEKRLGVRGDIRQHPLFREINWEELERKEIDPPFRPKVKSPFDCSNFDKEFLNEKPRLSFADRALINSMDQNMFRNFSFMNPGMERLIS
Chain of Serine/threonine-protein kinase RIO2 (Homo sapiens) (Q9BVS4 whole entry, looked up): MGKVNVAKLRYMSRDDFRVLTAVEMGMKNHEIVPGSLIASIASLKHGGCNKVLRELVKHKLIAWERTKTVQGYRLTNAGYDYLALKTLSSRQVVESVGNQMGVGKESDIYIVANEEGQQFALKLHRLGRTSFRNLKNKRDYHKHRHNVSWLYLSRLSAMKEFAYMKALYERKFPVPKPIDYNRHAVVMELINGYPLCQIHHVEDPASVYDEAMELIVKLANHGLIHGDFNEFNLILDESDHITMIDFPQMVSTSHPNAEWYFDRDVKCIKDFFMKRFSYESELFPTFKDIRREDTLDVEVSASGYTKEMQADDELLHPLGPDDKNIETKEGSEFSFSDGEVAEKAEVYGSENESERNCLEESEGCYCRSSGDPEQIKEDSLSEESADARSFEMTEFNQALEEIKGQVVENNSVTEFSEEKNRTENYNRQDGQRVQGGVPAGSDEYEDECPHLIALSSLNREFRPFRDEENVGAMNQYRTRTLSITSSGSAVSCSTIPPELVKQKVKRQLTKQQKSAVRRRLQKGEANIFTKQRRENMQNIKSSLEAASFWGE
Chain of Cyclin-dependent kinase 2 homolog (Plasmodium falciparum (isolate 3D7)) (P61075 whole entry, canonical isoform): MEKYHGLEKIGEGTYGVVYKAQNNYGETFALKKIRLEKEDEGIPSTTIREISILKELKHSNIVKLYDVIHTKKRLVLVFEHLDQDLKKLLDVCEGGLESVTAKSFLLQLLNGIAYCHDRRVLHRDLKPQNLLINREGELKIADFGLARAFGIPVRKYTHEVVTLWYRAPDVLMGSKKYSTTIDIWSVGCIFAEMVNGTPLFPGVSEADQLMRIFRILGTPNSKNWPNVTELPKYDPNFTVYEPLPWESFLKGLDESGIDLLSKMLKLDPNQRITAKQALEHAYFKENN
Chain of SRSF protein kinase 1 (Homo sapiens) (Q96SB4 whole entry): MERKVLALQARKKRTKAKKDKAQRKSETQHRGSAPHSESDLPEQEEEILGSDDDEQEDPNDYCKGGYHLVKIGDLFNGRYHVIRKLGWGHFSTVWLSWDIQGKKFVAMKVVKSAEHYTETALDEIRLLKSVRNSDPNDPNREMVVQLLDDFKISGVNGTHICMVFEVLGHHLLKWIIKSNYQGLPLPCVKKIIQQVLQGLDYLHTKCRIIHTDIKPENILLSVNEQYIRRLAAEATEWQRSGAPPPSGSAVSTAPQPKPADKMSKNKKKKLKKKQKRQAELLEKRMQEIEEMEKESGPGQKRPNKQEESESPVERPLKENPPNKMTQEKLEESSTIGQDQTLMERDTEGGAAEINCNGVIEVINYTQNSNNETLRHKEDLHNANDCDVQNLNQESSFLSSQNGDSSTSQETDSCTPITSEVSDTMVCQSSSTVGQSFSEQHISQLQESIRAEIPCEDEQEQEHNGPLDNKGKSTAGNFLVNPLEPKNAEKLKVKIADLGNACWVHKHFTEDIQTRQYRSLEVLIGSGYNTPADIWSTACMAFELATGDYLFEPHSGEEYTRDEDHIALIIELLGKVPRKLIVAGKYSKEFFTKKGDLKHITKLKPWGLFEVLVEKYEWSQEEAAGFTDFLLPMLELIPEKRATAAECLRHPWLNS
Chain of Calcium/calmodulin-dependent protein kinase kinase 1 (Homo sapiens) (Q8N5S9 whole entry, looked up): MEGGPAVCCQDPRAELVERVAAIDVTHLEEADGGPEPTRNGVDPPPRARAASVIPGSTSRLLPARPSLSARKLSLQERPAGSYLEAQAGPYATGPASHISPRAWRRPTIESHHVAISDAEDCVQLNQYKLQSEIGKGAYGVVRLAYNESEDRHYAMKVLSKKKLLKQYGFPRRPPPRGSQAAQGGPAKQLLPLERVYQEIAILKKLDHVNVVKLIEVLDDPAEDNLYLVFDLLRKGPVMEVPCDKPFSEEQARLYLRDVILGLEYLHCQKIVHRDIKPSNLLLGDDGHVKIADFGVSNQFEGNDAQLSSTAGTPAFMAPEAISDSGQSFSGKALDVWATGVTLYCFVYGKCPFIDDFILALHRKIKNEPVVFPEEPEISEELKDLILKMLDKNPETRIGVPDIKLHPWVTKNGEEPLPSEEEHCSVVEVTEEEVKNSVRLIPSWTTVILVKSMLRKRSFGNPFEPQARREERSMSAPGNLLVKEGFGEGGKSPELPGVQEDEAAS
Chain of Tyrosine-protein kinase Lck (Homo sapiens) (P06239 2-509 limits assumed): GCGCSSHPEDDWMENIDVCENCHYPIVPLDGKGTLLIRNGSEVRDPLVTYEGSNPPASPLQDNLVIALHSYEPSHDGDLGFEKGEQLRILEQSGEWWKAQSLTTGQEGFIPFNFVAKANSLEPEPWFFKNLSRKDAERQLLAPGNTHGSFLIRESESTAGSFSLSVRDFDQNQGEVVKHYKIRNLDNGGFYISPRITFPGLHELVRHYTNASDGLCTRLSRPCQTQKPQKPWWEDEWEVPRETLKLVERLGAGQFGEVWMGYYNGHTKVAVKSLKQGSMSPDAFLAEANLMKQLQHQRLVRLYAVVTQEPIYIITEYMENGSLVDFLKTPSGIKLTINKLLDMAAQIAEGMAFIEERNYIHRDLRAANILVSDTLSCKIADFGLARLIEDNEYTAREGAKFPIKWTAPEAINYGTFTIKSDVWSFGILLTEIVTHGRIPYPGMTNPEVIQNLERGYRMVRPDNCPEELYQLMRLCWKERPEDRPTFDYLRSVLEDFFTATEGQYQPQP
Chain of Ribosomal protein S6 kinase alpha-1 (Homo sapiens) (Q15418 whole entry): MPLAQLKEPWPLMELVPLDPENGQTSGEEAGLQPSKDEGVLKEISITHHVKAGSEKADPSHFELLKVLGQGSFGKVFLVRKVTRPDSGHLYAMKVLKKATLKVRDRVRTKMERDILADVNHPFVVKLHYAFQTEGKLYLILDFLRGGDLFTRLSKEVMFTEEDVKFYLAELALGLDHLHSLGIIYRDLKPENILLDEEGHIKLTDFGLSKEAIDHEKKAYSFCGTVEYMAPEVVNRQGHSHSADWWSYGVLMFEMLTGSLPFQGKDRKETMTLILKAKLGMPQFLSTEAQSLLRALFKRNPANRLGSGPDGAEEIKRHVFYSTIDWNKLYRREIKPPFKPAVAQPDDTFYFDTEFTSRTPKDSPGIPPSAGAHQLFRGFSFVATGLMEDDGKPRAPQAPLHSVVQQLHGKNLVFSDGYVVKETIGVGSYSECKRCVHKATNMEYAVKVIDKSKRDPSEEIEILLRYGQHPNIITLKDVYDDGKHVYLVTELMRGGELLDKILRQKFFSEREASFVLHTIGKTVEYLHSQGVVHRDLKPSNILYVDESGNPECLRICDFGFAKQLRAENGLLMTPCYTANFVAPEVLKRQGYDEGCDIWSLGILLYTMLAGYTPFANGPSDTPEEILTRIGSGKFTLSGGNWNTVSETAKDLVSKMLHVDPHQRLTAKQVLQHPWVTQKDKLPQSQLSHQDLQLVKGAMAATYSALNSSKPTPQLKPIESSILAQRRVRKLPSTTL

CO[C@@H](C)c1c(Nc2ccc([C@H](N(C)C(=O)C3CCS(=O)(=O)CC3)C(F)(F)F)cc2)cnc2cc(Cl)nn12 [NVS-MALT1]
inactive: residual activity [1] 100% | residual activity [2] 100% | residual activity [3] 100% | residual activity [4] 100% | residual activity [5] 96% | residual activity [6] 80% | residual activity [7] 100% | residual activity [8] 73% | residual activity [9] 94% | residual activity [10] 100% | residual activity [11] 71% | residual activity [12] 98% | residual activity [13] 85% | residual activity [14] 100% | residual activity [15] 72% | residual activity [16] 93% | residual activity [17] 100% | residual activity [18] 98% | residual activity [19] 83% | residual activity [20] 89% | residual activity [21] 100% | residual activity [22] 100% | residual activity [23] 100% | residual activity [24] 90% | residual activity [25] 79% | residual activity [26] 79% | residual activity [27] 100% | residual activity [28] 100% | residual activity [29] 62% | residual activity [30] 54% | residual activity [31] 85% | residual activity [32] 100% | residual activity [33] 93% | residual activity [34] 100% | residual activity [35] 90% | residual activity [36] 86% | residual activity [37] 71% | residual activity [38] 99% | residual activity [39] 96% | residual activity [40] 94% | residual activity [41] 100% | residual activity [42] 99% | residual activity [43] 91% | inhibition [44] 12.5% | inhibition [45] 31.9%

CO[C@@H](C)c1c(Nc2ccc([C@@H](N(C)C(=O)C3CCS(=O)(=O)CC3)C(F)(F)F)cc2)cnc2cc(Cl)nn12 [NVS-MALT1-C]
inactive: residual activity [1] 89% | residual activity [2] 65% | residual activity [3] 100% | residual activity [4] 100% | residual activity [5] 85% | residual activity [6] 98% | residual activity [7] 100% | residual activity [8] 73% | residual activity [9] 92% | residual activity [10] 97% | residual activity [11] 66% | residual activity [12] 93% | residual activity [13] 100% | residual activity [14] 100% | residual activity [15] 100% | residual activity [16] 82% | residual activity [17] 100% | residual activity [18] 100% | residual activity [19] 84% | residual activity [20] 89% | residual activity [21] 100% | residual activity [22] 85% | residual activity [23] 100% | residual activity [24] 90% | residual activity [25] 85% | residual activity [26] 86% | residual activity [27] 100% | residual activity [28] 100% | residual activity [29] 52% | residual activity [30] 65% | residual activity [31] 99% | residual activity [32] 100% | residual activity [33] 98% | residual activity [34] 100% | residual activity [35] 89% | residual activity [36] 94% | residual activity [37] 65% | residual activity [38] 98% | residual activity [39] 95% | residual activity [40] 95% | residual activity [41] 100% | residual activity [42] 99% | residual activity [43] 77% | inhibition [44] 11.4% | inhibition [45] 29.4%
